Experimental data taken from ChEMBL document CHEMBL1909046, “DrugMatrix in vitro pharmacology data”.

Assays:
[1] = target: Beta-3 adrenergic receptor (Homo sapiens, UniProt P13945); assay: DRUGMATRIX: Adrenergic beta3 radioligand binding (ligand: [125I] Cyanopindolol); type: cell membranes, Membrane; settings: hek293; Not Active = under 50% inhibition at 10 µM
[2] = DRUGMATRIX: ATPase, Na+/K+ enzyme inhibition (substrate: ATP); type: tissue-based, Sus scrofa, Heart; settings: Not Active = under 50% inhibition at 10 µM
[3] = target: T1, Vasoactive intestinal polypeptide receptor 1 (Homo sapiens, UniProt P32241); type: cell membranes, Membrane; settings: ht-29; further: in other assays of this panel Not Active means under 50% inhibition at 10 µM
T1 sequence (P32241 whole entry): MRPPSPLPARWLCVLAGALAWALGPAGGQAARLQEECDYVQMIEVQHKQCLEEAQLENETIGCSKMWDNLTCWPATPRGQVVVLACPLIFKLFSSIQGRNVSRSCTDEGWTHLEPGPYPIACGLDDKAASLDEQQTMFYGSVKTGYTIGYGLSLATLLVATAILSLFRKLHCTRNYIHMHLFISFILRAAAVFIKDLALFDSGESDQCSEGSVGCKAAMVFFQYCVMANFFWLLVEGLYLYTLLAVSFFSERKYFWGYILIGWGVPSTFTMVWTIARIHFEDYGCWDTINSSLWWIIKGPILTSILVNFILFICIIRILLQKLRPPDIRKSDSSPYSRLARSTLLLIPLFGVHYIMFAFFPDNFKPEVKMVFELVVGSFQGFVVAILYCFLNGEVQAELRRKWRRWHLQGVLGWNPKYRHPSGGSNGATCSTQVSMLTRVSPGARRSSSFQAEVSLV

[4] = DRUGMATRIX: Atrial Natriuretic Factor (ANF) radioligand binding (ligand: [125I] ANF (rat)); type: cell membranes, Cavia porcellus, Dunkin-Hartley, Adrenal gland, Membrane; settings: Not Active = under 50% inhibition at 10 µM
[5] = target: T2, Cysteinyl leukotriene receptor 1 (Homo sapiens, UniProt Q9Y271); type: cell membranes, CHO-K1, Membrane; settings: cho-k1; further: in other assays of this panel Not Active means under 50% inhibition at 10 µM
T2 sequence (Q9Y271 whole entry): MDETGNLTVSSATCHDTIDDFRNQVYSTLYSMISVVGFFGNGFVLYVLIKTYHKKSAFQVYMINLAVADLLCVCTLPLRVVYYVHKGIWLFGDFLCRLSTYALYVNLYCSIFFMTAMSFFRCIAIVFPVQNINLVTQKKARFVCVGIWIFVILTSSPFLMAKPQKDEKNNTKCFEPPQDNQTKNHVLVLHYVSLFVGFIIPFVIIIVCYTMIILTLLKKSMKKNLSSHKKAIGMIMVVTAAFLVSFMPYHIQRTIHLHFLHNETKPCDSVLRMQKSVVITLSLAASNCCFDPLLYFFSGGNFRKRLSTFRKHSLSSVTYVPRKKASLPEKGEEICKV

[6] = DRUGMATRIX: Calcium Channel Type L, Phenylalkylamine radioligand binding (ligand: [3H] (-)-Desmethoxyverapamil (D-888)); type: cell membranes, Rattus norvegicus, Wistar, Brain, Membrane; settings: Not Active = under 50% inhibition at 10 µM
Substance-K receptor = target: T3, Substance-K receptor (Homo sapiens, UniProt P21452); type: cell membranes, CHO, Membrane; settings: cho; further: in other assays of this panel Not Active means under 50% inhibition at 10 µM
T3 sequence (P21452 whole entry): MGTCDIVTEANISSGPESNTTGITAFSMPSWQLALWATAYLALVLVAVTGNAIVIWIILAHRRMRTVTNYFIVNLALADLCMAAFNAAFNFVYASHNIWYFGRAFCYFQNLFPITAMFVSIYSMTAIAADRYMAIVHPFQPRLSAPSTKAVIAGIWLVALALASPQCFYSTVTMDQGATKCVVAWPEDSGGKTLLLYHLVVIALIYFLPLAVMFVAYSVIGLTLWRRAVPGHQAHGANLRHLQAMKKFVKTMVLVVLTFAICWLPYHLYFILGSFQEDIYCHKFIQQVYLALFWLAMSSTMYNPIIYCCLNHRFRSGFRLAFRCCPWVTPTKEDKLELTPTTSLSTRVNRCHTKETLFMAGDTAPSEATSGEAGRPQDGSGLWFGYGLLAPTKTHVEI

[7] = target: T4, Receptor-type tyrosine-protein phosphatase C (Homo sapiens, UniProt P08575); set-up: species or system Escherichia coli;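 further: inhibition of CD45 enzyme activity measured using DiFMUP as substrate; in other assays of this panel Not Active means under 50% inhibition at 10 µM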
T4 sequence (P08575 whole entry): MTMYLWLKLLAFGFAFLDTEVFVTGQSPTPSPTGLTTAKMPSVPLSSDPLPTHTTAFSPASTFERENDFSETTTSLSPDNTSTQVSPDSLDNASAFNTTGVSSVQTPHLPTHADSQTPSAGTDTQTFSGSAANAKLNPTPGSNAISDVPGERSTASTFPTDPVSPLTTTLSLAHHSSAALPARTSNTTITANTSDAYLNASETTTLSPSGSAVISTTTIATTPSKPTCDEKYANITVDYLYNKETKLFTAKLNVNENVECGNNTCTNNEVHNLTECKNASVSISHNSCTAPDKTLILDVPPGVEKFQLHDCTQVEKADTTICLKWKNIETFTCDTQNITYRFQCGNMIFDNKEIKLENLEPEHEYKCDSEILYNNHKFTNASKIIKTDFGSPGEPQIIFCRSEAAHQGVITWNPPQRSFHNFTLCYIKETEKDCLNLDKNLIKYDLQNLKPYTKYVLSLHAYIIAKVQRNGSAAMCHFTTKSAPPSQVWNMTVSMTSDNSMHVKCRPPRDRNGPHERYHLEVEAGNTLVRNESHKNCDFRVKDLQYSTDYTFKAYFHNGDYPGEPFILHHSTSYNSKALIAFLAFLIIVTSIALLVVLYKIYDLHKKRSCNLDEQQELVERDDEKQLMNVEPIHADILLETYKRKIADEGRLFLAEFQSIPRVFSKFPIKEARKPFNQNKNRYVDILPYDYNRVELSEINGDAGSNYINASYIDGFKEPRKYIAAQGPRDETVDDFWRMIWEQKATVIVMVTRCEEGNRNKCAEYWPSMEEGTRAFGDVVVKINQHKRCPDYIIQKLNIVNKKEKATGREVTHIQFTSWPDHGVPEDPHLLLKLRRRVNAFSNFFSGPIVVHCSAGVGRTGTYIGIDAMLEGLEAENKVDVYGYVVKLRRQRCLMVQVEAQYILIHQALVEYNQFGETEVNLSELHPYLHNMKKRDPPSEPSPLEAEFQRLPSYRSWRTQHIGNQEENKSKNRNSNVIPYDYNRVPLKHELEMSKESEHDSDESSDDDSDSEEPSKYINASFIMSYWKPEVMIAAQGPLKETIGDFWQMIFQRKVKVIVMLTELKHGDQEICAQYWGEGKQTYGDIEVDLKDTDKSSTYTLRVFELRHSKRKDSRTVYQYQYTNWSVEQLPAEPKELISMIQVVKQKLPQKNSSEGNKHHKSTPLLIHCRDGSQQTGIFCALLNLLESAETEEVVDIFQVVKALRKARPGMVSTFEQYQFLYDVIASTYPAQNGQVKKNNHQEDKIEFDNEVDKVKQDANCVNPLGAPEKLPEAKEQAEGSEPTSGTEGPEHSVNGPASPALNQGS

[8] = DRUGMATRIX: Glutamate, Kainate radioligand binding (ligand: [3H] Kainic acid); type: cell membranes, Rattus norvegicus, Wistar, Brain, Membrane; settings: Not Active = under 50% inhibition at 10 µM

Sequence of Beta-3 adrenergic receptor (P13945 whole entry): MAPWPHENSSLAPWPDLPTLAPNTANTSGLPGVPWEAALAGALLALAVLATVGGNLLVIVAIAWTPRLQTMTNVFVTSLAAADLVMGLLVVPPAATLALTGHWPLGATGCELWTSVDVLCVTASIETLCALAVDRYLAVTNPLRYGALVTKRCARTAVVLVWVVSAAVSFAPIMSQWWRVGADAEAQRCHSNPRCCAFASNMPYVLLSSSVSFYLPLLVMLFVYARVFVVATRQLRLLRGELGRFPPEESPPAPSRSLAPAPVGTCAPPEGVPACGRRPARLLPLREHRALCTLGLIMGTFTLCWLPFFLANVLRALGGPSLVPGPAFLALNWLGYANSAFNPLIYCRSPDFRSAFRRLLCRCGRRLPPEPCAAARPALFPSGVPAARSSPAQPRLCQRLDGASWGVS

[Cl-].[Cl-].[Zn+2] [ZINC CHLORIDE]
Not Active: IC50 [1] | IC50 [2] | Ki [2] | IC50 [3] | IC50 [4] | Ki [4] | IC50 [5] | IC50 [6] | Ki [6] | IC50 (Substance-K receptor) | IC50 [7] | IC50 [8] | Ki [8]
